In PubChem BioAssay AID2060897 (Molecular Pharmacology Branch, DTP, NCI, 2025):

System: 966289-007-R4-J1-PDC complex spheroid viability
Experiment: Anticancer human tumor 966289-007-R4-J1-PDC patient-derived pancreatic adenocarcinoma cell line growth inhibition [RAS]
Conditions: for IC50: curve of first compound; for viability, T/C: stronger effect = lower value
How it was run: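 Tumour cells grown as complex spheroids with HUVEC endothelial cells and mesenchymal stem cells, treated with RAS pathway inhibitor combinations. Each agent spans half-log steps from near clinical Cmax, or 10 microM where Cmax is unknown.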

[1] = second compound 0.000949 µM, first compound 0.0316 µM
[2] = second compound 0.000949 µM, first compound 0.1 µM
[3] = second compound 0.000949 µM, first compound 0.316 µM
[4] = second compound 0.000949 µM, first compound 1 µM
[5] = second compound 0.000949 µM, first compound 3.16 µM
[6] = second compound 0.000949 µM, first compound 10 µM
[7] = second compound 0.003 µM, first compound 0.0316 µM
[8] = second compound 0.003 µM, first compound 0.1 µM
[9] = second compound 0.003 µM, first compound 0.316 µM
[10] = second compound 0.003 µM, first compound 1 µM
[11] = second compound 0.003 µM, first compound 3.16 µM
[12] = second compound 0.003 µM, first compound 10 µM
[13] = second compound 0.00949 µM, first compound 0.0316 µM
[14] = second compound 0.00949 µM, first compound 0.1 µM
[15] = second compound 0.00949 µM, first compound 0.316 µM
[16] = second compound 0.00949 µM, first compound 1 µM
[17] = second compound 0.00949 µM, first compound 3.16 µM
[18] = second compound 0.00949 µM, first compound 10 µM
[19] = second compound 0.03 µM, first compound 0.0316 µM
[20] = second compound 0.03 µM, first compound 0.1 µM
[21] = second compound 0.03 µM, first compound 0.316 µM
[22] = second compound 0.03 µM, first compound 1 µM
[23] = second compound 0.03 µM, first compound 3.16 µM
[24] = second compound 0.03 µM, first compound 10 µM
[25] = second compound 0.0949 µM, first compound 0.0316 µM
[26] = second compound 0.0949 µM, first compound 0.1 µM
[27] = second compound 0.0949 µM, first compound 0.316 µM
[28] = second compound 0.0949 µM, first compound 1 µM
[29] = second compound 0.0949 µM, first compound 3.16 µM
[30] = second compound 0.0949 µM, first compound 10 µM
[31] = second compound 0.3 µM, first compound 0.0316 µM
[32] = second compound 0.3 µM, first compound 0.1 µM
[33] = second compound 0.3 µM, first compound 0.316 µM
[34] = second compound 0.3 µM, first compound 1 µM
[35] = second compound 0.3 µM, first compound 3.16 µM
[36] = second compound 0.3 µM, first compound 10 µM
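Further: spheroids exposed to agents for one week before readout.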
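Wherever viability, T/C is given: percent viability relative to DMSO vehicle control wells as 100%.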

## CC(Nc1ccc2c(c1)OCCn1cc(N3C(=O)OCC3C(F)F)nc1-2)C(N)=O (centres undefined) + CCn1c(-c2cccnc2C(C)OC)c2c3cc(ccc31)N1CCOC(CC(NC(=O)C(C(C)C)N(C)C(=O)C3(F)CCN(C(=O)C#CC(C)(C)N(C)C)CC3)C(=O)N3CCCC(N3)C(=O)OCC(C)(C)C2)C1
Second compound 0.000949 µM
  IC50: > 10 µM
Second compound 0.003 µM
  IC50: > 10 µM
Second compound 0.00949 µM
  IC50: > 10 µM
Second compound 0.03 µM
  IC50: > 10 µM
Second compound 0.0949 µM
  IC50: > 10 µM
Second compound 0.3 µM
  IC50: > 10 µM
[1]
  viability, T/C: 97.2%
[2]
  viability, T/C: 114%
[3]
  viability, T/C: 121%
[4]
  viability, T/C: 77.1%
[5]
  viability, T/C: 90.5%
[6]
  viability, T/C: 74.9%
[7]
  viability, T/C: 93.7%
[8]
  viability, T/C: 99.9%
[9]
  viability, T/C: 111%
[10]
  viability, T/C: 83.4%
[11]
  viability, T/C: 78.2%
[12]
  viability, T/C: 86.1%
[13]
  viability, T/C: 73.8%
[14]
  viability, T/C: 105%
[15]
  viability, T/C: 111%
[16]
  viability, T/C: 92.6%
[17]
  viability, T/C: 103%
[18]
  viability, T/C: 77.3%
[19]
  viability, T/C: 60.7%
[20]
  viability, T/C: 94.2%
[21]
  viability, T/C: 106%
[22]
  viability, T/C: 82.3%
[23]
  viability, T/C: 114%
[24]
  viability, T/C: 88.5%
[25]
  viability, T/C: 69.8%
[26]
  viability, T/C: 91.7%
[27]
  viability, T/C: 105%
[28]
  viability, T/C: 108%
[29]
  viability, T/C: 105%
[30]
  viability, T/C: 82%
[31]
  viability, T/C: 101%
[32]
  viability, T/C: 94.8%
[33]
  viability, T/C: 124%
[34]
  viability, T/C: 97%
[35]
  viability, T/C: 135%
[36]
  viability, T/C: 73.8%

## C[C@@H](NC(=O)c1ncnc(N)c1Cl)c1ncc(C(=O)Nc2cc(C(F)(F)F)c(Cl)cn2)s1 + CCn1c(-c2cc(N3CCN(C)CC3)cnc2C(C)OC)c2c3cc(ccc31)-c1csc(n1)CC(NC(=O)C1CC1C)C(=O)N1CCCC(N1)C(=O)OCC(C)(C)C2
Second compound 0.000949 µM
  IC50: > 10 µM
Second compound 0.003 µM
  IC50: > 10 µM
Second compound 0.00949 µM
  IC50: > 10 µM
Second compound 0.03 µM
  IC50: > 10 µM
Second compound 0.0949 µM
  IC50: > 10 µM
Second compound 0.3 µM
  IC50: > 10 µM
[1]
  viability, T/C: 125%
[2]
  viability, T/C: 120%
[3]
  viability, T/C: 91.1%
[4]
  viability, T/C: 73%
[5]
  viability, T/C: 73.8%
[6]
  viability, T/C: 103%
[7]
  viability, T/C: 94.6%
[8]
  viability, T/C: 113%
[9]
  viability, T/C: 102%
[10]
  viability, T/C: 85.1%
[11]
  viability, T/C: 97%
[12]
  viability, T/C: 84.2%
[13]
  viability, T/C: 97.3%
[14]
  viability, T/C: 116%
[15]
  viability, T/C: 95.3%
[16]
  viability, T/C: 69%
[17]
  viability, T/C: 103%
[18]
  viability, T/C: 110%
[19]
  viability, T/C: 79.2%
[20]
  viability, T/C: 77.2%
[21]
  viability, T/C: 118%
[22]
  viability, T/C: 123%
[23]
  viability, T/C: 117%
[24]
  viability, T/C: 82%
[25]
  viability, T/C: 76.6%
[26]
  viability, T/C: 88.3%
[27]
  viability, T/C: 119%
[28]
  viability, T/C: 105%
[29]
  viability, T/C: 111%
[30]
  viability, T/C: 150%
[31]
  viability, T/C: 60.5%
[32]
  viability, T/C: 101%
[33]
  viability, T/C: 130%
[34]
  viability, T/C: 141%
[35]
  viability, T/C: 116%
[36]
  viability, T/C: 107%
